Measured values as given in PubChem BioAssay AID1963851 (Molecular Pharmacology Branch, DTP, NCI, 2024).

Tested on: 188146-221-R-J1-PDC complex spheroid viability
Test: Anticancer human tumor 188146-221-R-J1-PDC patient-derived colon adenocarcinoma cell line growth inhibition [POLQ]
Conditions: for IC50: curve of first compound; for viability, T/C: stronger effect = lower value; active = viability on the fitted dose curve at most 10% of control; inactive = the rest
How it was run: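 PDC + HUVEC + MSC complex spheroids; POLQ inhibitors ± partner drugs; top conc. at/near clinical Cmax, else 10 microM (SN-38 1 microM), half-log dilutions; 37 degrees C, 5% CO2.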
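Also: spheroids exposed to compounds for seven days.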
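For viability, T/C in this document: 100% = DMSO vehicle control viability.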

CC[C@@]1(O)C(=O)OCc2c1cc1n(c2=O)Cc2cc3c(CN(C)C)c(O)ccc3nc2-1 + COC1C(OC(N)=O)C(O)C(Oc2ccc3c(O)c(NC(=O)c4ccc(O)c(CC=C(C)C)c4)c(=O)oc3c2C)OC1(C)C
> 100 nM: IC50 (second compound 0.0316 µM) | IC50 (second compound 0.1 µM) | IC50 (second compound 0.316 µM) | IC50 (second compound 1 µM) | IC50 (second compound 3.16 µM) | IC50 (second compound 10 µM)
inactive: viability, T/C (second compound 0.0316 µM, first compound 0.000316 µM) 109% | viability, T/C (second compound 0.0316 µM, first compound 0.001 µM) 98.7% | viability, T/C (second compound 0.0316 µM, first compound 0.00316 µM) 102% | viability, T/C (second compound 0.0316 µM, first compound 0.01 µM) 101% | viability, T/C (second compound 0.0316 µM, first compound 0.0316 µM) 98.8% | viability, T/C (second compound 0.0316 µM, first compound 0.1 µM) 68.2% | viability, T/C (second compound 0.1 µM, first compound 0.000316 µM) 97.7% | viability, T/C (second compound 0.1 µM, first compound 0.001 µM) 100% | viability, T/C (second compound 0.1 µM, first compound 0.00316 µM) 89.8% | viability, T/C (second compound 0.1 µM, first compound 0.01 µM) 101% | viability, T/C (second compound 0.1 µM, first compound 0.0316 µM) 87.9% | viability, T/C (second compound 0.1 µM, first compound 0.1 µM) 66.5% | viability, T/C (second compound 0.316 µM, first compound 0.000316 µM) 106% | viability, T/C (second compound 0.316 µM, first compound 0.001 µM) 95.9% | viability, T/C (second compound 0.316 µM, first compound 0.00316 µM) 107% | viability, T/C (second compound 0.316 µM, first compound 0.01 µM) 98.1% | viability, T/C (second compound 0.316 µM, first compound 0.0316 µM) 89.2% | viability, T/C (second compound 0.316 µM, first compound 0.1 µM) 73.9% | viability, T/C (second compound 1 µM, first compound 0.000316 µM) 111% | viability, T/C (second compound 1 µM, first compound 0.001 µM) 104% | viability, T/C (second compound 1 µM, first compound 0.00316 µM) 109% | viability, T/C (second compound 1 µM, first compound 0.01 µM) 104% | viability, T/C (second compound 1 µM, first compound 0.0316 µM) 90.1% | viability, T/C (second compound 1 µM, first compound 0.1 µM) 79.3% | viability, T/C (second compound 3.16 µM, first compound 0.000316 µM) 104% | viability, T/C (second compound 3.16 µM, first compound 0.001 µM) 102% | viability, T/C (second compound 3.16 µM, first compound 0.00316 µM) 94.5% | viability, T/C (second compound 3.16 µM, first compound 0.01 µM) 91.6% | viability, T/C (second compound 3.16 µM, first compound 0.0316 µM) 102% | viability, T/C (second compound 3.16 µM, first compound 0.1 µM) 67.3% | viability, T/C (second compound 10 µM, first compound 0.000316 µM) 96.2% | viability, T/C (second compound 10 µM, first compound 0.001 µM) 90.7% | viability, T/C (second compound 10 µM, first compound 0.00316 µM) 99.5% | viability, T/C (second compound 10 µM, first compound 0.01 µM) 94.6% | viability, T/C (second compound 10 µM, first compound 0.0316 µM) 92.1% | viability, T/C (second compound 10 µM, first compound 0.1 µM) 62.9%

CC(=O)O[C@H]1C(=O)[C@@]2(C)[C@H]([C@H](OC(=O)c3ccccc3)[C@]3(O)C[C@H](OC(=O)[C@H](O)[C@@H](NC(=O)c4ccccc4)c4ccccc4)C(C)=C1C3(C)C)[C@]1(OC(C)=O)CO[C@@H]1C[C@@H]2O + COC1C(OC(N)=O)C(O)C(Oc2ccc3c(O)c(NC(=O)c4ccc(O)c(CC=C(C)C)c4)c(=O)oc3c2C)OC1(C)C
inactive: viability, T/C (second compound 0.0316 µM, first compound 0.00949 µM) 76% | viability, T/C (second compound 0.0316 µM, first compound 0.03 µM) 21% | viability, T/C (second compound 0.0316 µM, first compound 0.0949 µM) 10.8% | viability, T/C (second compound 0.0316 µM, first compound 0.3 µM) 10.2% | viability, T/C (second compound 0.0316 µM, first compound 0.949 µM) 10.4% | viability, T/C (second compound 0.0316 µM, first compound 3 µM) 9.91% | viability, T/C (second compound 0.1 µM, first compound 0.00949 µM) 80.1% | viability, T/C (second compound 0.1 µM, first compound 0.03 µM) 21.7% | viability, T/C (second compound 0.1 µM, first compound 0.0949 µM) 12.2% | viability, T/C (second compound 0.316 µM, first compound 0.00949 µM) 75.9% | viability, T/C (second compound 0.316 µM, first compound 0.03 µM) 24.3% | viability, T/C (second compound 0.316 µM, first compound 0.0949 µM) 9.19% | viability, T/C (second compound 0.316 µM, first compound 0.3 µM) 11.9% | viability, T/C (second compound 0.316 µM, first compound 0.949 µM) 9.74% | viability, T/C (second compound 0.316 µM, first compound 3 µM) 11.2% | viability, T/C (second compound 1 µM, first compound 0.00949 µM) 66.3% | viability, T/C (second compound 1 µM, first compound 0.03 µM) 21.7% | viability, T/C (second compound 1 µM, first compound 0.0949 µM) 10.2% | viability, T/C (second compound 3.16 µM, first compound 0.00949 µM) 84% | viability, T/C (second compound 3.16 µM, first compound 0.03 µM) 18.2% | viability, T/C (second compound 3.16 µM, first compound 0.0949 µM) 12.6% | viability, T/C (second compound 3.16 µM, first compound 0.3 µM) 8.24% | viability, T/C (second compound 3.16 µM, first compound 0.949 µM) 11.4% | viability, T/C (second compound 3.16 µM, first compound 3 µM) 10.8% | viability, T/C (second compound 10 µM, first compound 0.00949 µM) 75.6% | viability, T/C (second compound 10 µM, first compound 0.03 µM) 19.2% | viability, T/C (second compound 10 µM, first compound 0.0949 µM) 11.2% | viability, T/C (second compound 10 µM, first compound 0.3 µM) 9.41% | viability, T/C (second compound 10 µM, first compound 0.949 µM) 12.8% | viability, T/C (second compound 10 µM, first compound 3 µM) 11.8%
17.2 nM: IC50 (second compound 0.1 µM) | IC50 (second compound 3.16 µM)
14.4 nM: IC50 (second compound 1 µM)
active: viability, T/C (second compound 0.1 µM, first compound 0.3 µM) 9.8% | viability, T/C (second compound 0.1 µM, first compound 0.949 µM) 8.82% | viability, T/C (second compound 0.1 µM, first compound 3 µM) 9.35% | viability, T/C (second compound 1 µM, first compound 0.3 µM) 10% | viability, T/C (second compound 1 µM, first compound 0.949 µM) 10.6% | viability, T/C (second compound 1 µM, first compound 3 µM) 9.98%
16.8 nM: IC50 (second compound 0.316 µM)
16.4 nM: IC50 (second compound 0.0316 µM)
16 nM: IC50 (second compound 10 µM)
